Data reported in patent US4250259A, “Microbiological production of ketones from C3 -C6 secondary alcohols” (priority 1979, dated 1981).

Tested on: Methylococcus capsulatus, Texas (ATCC 19069)
Assay: sec-alcohols to ketones by resting cell suspensions
Assay type: cell-based
Details: cells grown on methane
Method: (§1) The pH of the nutrient medium was adjusted to 7.0 by the addition of acid or base and 50 ml. samples of the nutrient medium were charged into a plurality of 300 ml. shaker flasks. The shaker flasks were inoculated with an inoculating loop of cells from an agar plate containing homogeneous colonies of the microorganisms on the plate (the purity of the isolates was confirmed by microscopic examination). The isolates had been maintained on methanol (0.4% V/V) agar plates or on agar plates under an atmosphere of methane and air having a 1:1 V/V gas ratio which had been transferred every two weeks. For growth on methanol, the medium was supplemented with 0.4% methanol. For growth on methane, the gaseous phase of the inoculated flasks was replaced with a gas mixture comprised of methane and air having a ratio of 1:1 on a V/V basis. The inoculated flasks were sealed air-tight and were incubated on a rotary shaker of orbital radius 2.5 cm. at 250 rpm and at 30° C. for two days until turbidity in the medium had developed. The cells were harvested by centrifugation at 10,000×g. at 4° C. for 30 minutes. The cell pellet was washed twice with a 0.05 M phosphate buffer at a pH of 7.0 (containing 0.02 M MgCl2). The washed cells were then suspended in a 0.05 M phosphate buffer at pH 7.0.
(§2) A 0.5 ml. sample of each washed cell suspension (2 mg. cells) was put into 10 ml. vials at 4° C. which were sealed with a rubber cap. The gaseous phase of the vials was removed with vacuum and then was replaced with a gas mixture of the substrate reactant (i.e., alkane or secondary alcohol) and oxygen at a 1:1 V/V ratio. (In the case of a liquid substrate, i.e., secondary alcohol, 10 μl of the substrate was put in the 10 ml. vials). […] Samples of product (1-3 μl) were withdrawn periodically with a microsyringe and the products were analyzed by gas chromatography (ionization flame detector column).
(§3) The procedure in Example 1 was repeated wherein a plurality of the methane-utilizing methylotrophic microorganisms were each grown aerobically in a nutrient medium containing methane as the alcohol dehydrogenase enzyme inducer and as the major carbon and energy source for growth. The cells were harvested and washed as described in Example 1. The resting microbial cells of the induced methane-grown methane-utilizing methylotrophic microorganisms were then contacted with C3 -C6 secondary alcohols in a buffered solution by the procedure of Example 1.
(§4) In this example, the procedure in Example 1 was repeated except that a plurality of methane-utilizing methylotrophic microorganisms were each aerobically grown in a methanol-containing nutrient medium instead of a methane-containing medium. The nutrients in the medium were the same as indicated in Example 1 except that 0.4% V/V methanol was used as the alcohol dehydrogenase inducer and major source of carbon and energy for growth. Following growth, the cells were harvested and washed as described in Example 1.
(§5) The resting cells of the induced methanol-grown methylotrophic microorganisms were then contacted with secondary alcohols in a buffered solution by the procedure described in Example 1.

Row | SMILES | Conversion Rates, sec-alcohol to corresponding ketone [μmoles/hr/mg protein]
1 | CCCC(C)O (centres unmarked) [2-Pentanol, 2-pentanol] | 2.5

Same assay, conditions: cells grown on methanol

Row | SMILES | Conversion Rates, sec-alcohol to corresponding ketone [μn moles/hr/mg protein]
2 | CCCC(C)O (centres unmarked) [2-Pentanol, 2-pentanol] | 3.5

Tested on: Methylomonas methanica S1 (NRRL B-11,199)
Assay: as above
Assay type: cell-based
Details: cells grown on methane
Method: as §1, §2, §3, §4, §5

Row | SMILES | Conversion Rates, sec-alcohol to corresponding ketone [μmoles/hr/mg protein]
3 | CCCC(C)O (centres unmarked) [2-Pentanol, 2-pentanol] | 0.25

Same assay, conditions: cells grown on methanol

Row | SMILES | Conversion Rates, sec-alcohol to corresponding ketone [μn moles/hr/mg protein]
4 | CCCC(C)O (centres unmarked) [2-Pentanol, 2-pentanol] | 0.45

Tested on: Methylocystis parvus OBBP (NRRL B-11,198)
Assay: as above
Assay type: cell-based
Details: cells grown on methane
Method: as §1, §2, §3, §4, §5

Row | SMILES | Conversion Rates, sec-alcohol to corresponding ketone [μmoles/hr/mg protein]
5 | CCCC(C)O (centres unmarked) [2-Pentanol, 2-pentanol] | 0.80

Same assay, conditions: cells grown on methanol

Row | SMILES | Conversion Rates, sec-alcohol to corresponding ketone [μn moles/hr/mg protein]
6 | CCCC(C)O (centres unmarked) [2-Pentanol, 2-pentanol] | 0.82

Tested on: Methylobacter capsulatus Y (NRRL B-11,201)
Assay: as above
Assay type: cell-based
Details: cells grown on methane
Method: as §1, §2, §3, §4, §5

Row | SMILES | Conversion Rates, sec-alcohol to corresponding ketone [μmoles/hr/mg protein]
7 | CCCC(C)O (centres unmarked) [2-Pentanol, 2-pentanol] | 0.5

Same assay, conditions: cells grown on methanol

Row | SMILES | Conversion Rates, sec-alcohol to corresponding ketone [μn moles/hr/mg protein]
8 | CCCC(C)O (centres unmarked) [2-Pentanol, 2-pentanol] | 0.60

Tested on: Methylosinus trichosporium OB3b (NRRL B-11,196)
Assay: as above
Assay type: cell-based
Details: cells grown on methane
Method: as §1, §2, §3, §4, §5
(§6) The procedure in Example 1 was repeated except that the methylotrophic microorganisms were each aerobically grown in an alcohol dehydrogenase-inducing growth medium containing methylamine or methyl formate as the alcohol dehydrogenase enzyme inducer and growth substrate instead of methane. The nutrients in the medium were the same as indicated in Example 1 except that 0.4% V/V of the alcohol dehydrogenase-inducer growth substrate was used as the major carbon and energy source. The cells were harvested and washed as described in Example 1. The resting microbial cells were then contacted with C3 -C6 secondary alcohols in a buffered solution by the conversion procedure of Example 1.

Row | SMILES | Conversion Rates, sec-alcohol to corresponding ketone [μmoles/hr/mg protein]
9 | CCCC(C)O (centres unmarked) [2-Pentanol, 2-pentanol] | 2.7

Same assay, conditions: cells grown on methanol

Row | SMILES | Conversion Rates, sec-alcohol to corresponding ketone [μn moles/hr/mg protein]
10 | CCCC(C)O (centres unmarked) [2-Pentanol, 2-pentanol] | 2.9

Same assay, conditions: methyl formate-grown cells

Row | SMILES | Conversion Rates, sec-alcohol to corresponding ketone [μmoles/hr/mg protein]
11 | CCCC(C)O (centres unmarked) [2-Pentanol, 2-pentanol] | 1.5

Tested on: Methylobacterium organophilum XX (ATCC 27886)
Assay: as above
Assay type: cell-based
Details: cells grown on methane
Method: as §1, §2, §3, §4, §5, §6

Row | SMILES | Conversion Rates, sec-alcohol to corresponding ketone [μmoles/hr/mg protein]
12 | CCCC(C)O (centres unmarked) [2-Pentanol, 2-pentanol] | 0.82

Same assay, conditions: cells grown on methanol

Row | SMILES | Conversion Rates, sec-alcohol to corresponding ketone [μn moles/hr/mg protein]
13 | CCCC(C)O (centres unmarked) [2-Pentanol, 2-pentanol] | 0.9

Same assay, conditions: methyl formate-grown cells

Row | SMILES | Conversion Rates, sec-alcohol to corresponding ketone [μmoles/hr/mg protein]
14 | CCCC(C)O (centres unmarked) [2-Pentanol, 2-pentanol] | 1.0

Tested on: cell extracts (NAD+-dependent secondary alcohol dehydrogenase)
Assay: sec-alcohols to methyl ketones by cell extracts of yeasts, gas chromatography
Assay type: biochemical, Hansenula polymorpha ATCC 26,012
Details: grown on methanol

Row | SMILES | Conversion Rate, sec-alcohol to methyl ketone [μmoles/hr/mg Protein]
15 | CCCC(C)O (centres unmarked) [2-Pentanol, 2-pentanol] | 1.0

Tested on: Pseudomonas sp. ATCC 21438 (Facultative)
Assay: sec-alcohols to ketones by resting cell suspensions
Assay type: cell-based
Details: methanol-grown cells
Method: as §1, §2
(§7) The procedure in Example 1 was repeated except that a plurality of methanol-utilizing methylotrophic microorganisms were each aerobically grown in a methanol-containing nutrient medium instead of a methane-containing medium. The nutrients in the medium were the same as indicated in Example 1 except that 0.4% V/V methanol was used as the alcohol dehydrogenase inducer and as the major carbon and energy source for growth. The cells were harvested and washed as described in Example 1. The resting microbial cells of the induced methanol-grown methanol-utilizing methylotrophic microorganisms were then contacted with C3 -C6 secondary alcohols in a buffered solution by the procedure of Example 1.
as §6

Row | SMILES | Conversion Rates, sec-alcohol to corresponding ketone [μmoles/hr/mg protein]
16 | CCCC(C)O (centres unmarked) [2-Pentanol, 2-pentanol] | 2.7

Same assay, conditions: methyl formate-grown cells

Row | SMILES | Conversion Rates, sec-alcohol to corresponding ketone [μmoles/hr/mg protein]
17 | CCCC(C)O (centres unmarked) [2-Pentanol, 2-pentanol] | 2.0

Same assay, conditions: methylamine-grown cells

Row | SMILES | Conversion Rates, sec-alcohol to corresponding ketone [μmoles/hr/mg protein]
18 | CCCC(C)O (centres unmarked) [2-Pentanol, 2-pentanol] | 0.82

Tested on: Methanomonas methylovora ATCC 21852 (Obligate)
Assay: as above
Assay type: cell-based
Details: methanol-grown cells
Method: as §1, §2, §7, §6

Row | SMILES | Conversion Rates, sec-alcohol to corresponding ketone [μmoles/hr/mg protein]
19 | CCCC(C)O (centres unmarked) [2-Pentanol, 2-pentanol] | 2.1

Same assay, conditions: methyl formate-grown cells

Row | SMILES | Conversion Rates, sec-alcohol to corresponding ketone [μmoles/hr/mg protein]
20 | CCCC(C)O (centres unmarked) [2-Pentanol, 2-pentanol] | 1.5

Same assay, conditions: methylamine-grown cells

Row | SMILES | Conversion Rates, sec-alcohol to corresponding ketone [μmoles/hr/mg protein]
21 | CCCC(C)O (centres unmarked) [2-Pentanol, 2-pentanol] | 1.0

Tested on: Torulopsis sp. Strain A1 (NRRLY-11,419)
Assay: sec-alcohols to ketones by cell suspensions of yeasts
Assay type: cell-based
Details: Growth Substrate Ethanol

Row | SMILES | Conversion Rate, sec-alcohol to corresponding ketone
22 | CCCC(C)O (centres unmarked) [2-Pentanol, 2-pentanol] | 1.2 μmoles/hr/mg of protein

Same assay, conditions: Growth Substrate Methanol

Row | SMILES | Conversion Rate, sec-alcohol to corresponding ketone
23 | CCCC(C)O (centres unmarked) [2-Pentanol, 2-pentanol] | 1.0 μmoles/hr/mg of protein

Same assay, conditions: Growth Substrate Methylamine

Row | SMILES | Conversion Rate, sec-alcohol to corresponding ketone
24 | CCCC(C)O (centres unmarked) [2-Pentanol, 2-pentanol] | 0.9 μmoles/hr/mg of protein

Same assay, conditions: Growth Substrate Methylformate

Row | SMILES | Conversion Rate, sec-alcohol to corresponding ketone
25 | CCCC(C)O (centres unmarked) [2-Pentanol, 2-pentanol] | 1.1 μmoles/hr/mg of protein

Same assay, conditions: Growth Substrate Propylamine

Row | SMILES | Conversion Rate, sec-alcohol to corresponding ketone
26 | CCCC(C)O (centres unmarked) [2-Pentanol, 2-pentanol] | 0.62 μmoles/hr/mg of protein
